In patent US6111065A, “Peptide inhibitors of inflammation mediated by selectins” (Centocor, Inc., priority 1994, dated 2000) one finds inhibition data, which are given here for one substance.

For this experiment, the target named is T1, GMP-140 (Homo sapiens, UniProt P16109).
T1 construct: from tissue; host or cells: human platelets (outdated platelet packs from a blood bank)
T1 sequence (P16109 42-830): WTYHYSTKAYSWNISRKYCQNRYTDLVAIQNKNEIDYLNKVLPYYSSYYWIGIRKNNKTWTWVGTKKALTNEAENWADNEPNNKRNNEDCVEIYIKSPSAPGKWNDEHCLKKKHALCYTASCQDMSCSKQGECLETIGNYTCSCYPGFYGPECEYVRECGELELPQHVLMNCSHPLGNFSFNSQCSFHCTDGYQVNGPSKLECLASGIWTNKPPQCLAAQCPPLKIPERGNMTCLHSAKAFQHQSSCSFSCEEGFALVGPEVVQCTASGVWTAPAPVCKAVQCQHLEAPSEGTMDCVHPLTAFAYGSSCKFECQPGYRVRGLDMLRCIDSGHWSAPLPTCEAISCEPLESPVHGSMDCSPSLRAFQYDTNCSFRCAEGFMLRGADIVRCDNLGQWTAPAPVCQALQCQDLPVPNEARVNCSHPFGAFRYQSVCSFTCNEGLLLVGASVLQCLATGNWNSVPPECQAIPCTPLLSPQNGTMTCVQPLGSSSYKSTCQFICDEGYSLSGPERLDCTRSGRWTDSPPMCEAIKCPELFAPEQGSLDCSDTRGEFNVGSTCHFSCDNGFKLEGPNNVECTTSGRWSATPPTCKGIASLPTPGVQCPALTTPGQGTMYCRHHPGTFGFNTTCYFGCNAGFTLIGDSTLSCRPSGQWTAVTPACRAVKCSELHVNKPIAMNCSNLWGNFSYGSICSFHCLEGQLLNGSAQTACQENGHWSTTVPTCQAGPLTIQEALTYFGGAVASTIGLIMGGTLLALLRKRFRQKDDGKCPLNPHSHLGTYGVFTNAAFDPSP
Description: Inhibition of neutrophil binding to GMP-140 coated wells. The class given is cell-based. The conditions noted are these: read-out: PERCENT INHIBITION OF NEUTROPHIL BINDING. From the text: Peptides can be screened for their ability to inhibit adhesion to cells, for example, neutrophil adhesion to purified GMP-140 immobilized on plastic wells, using the assay described by Geng, et al., Nature 343, 757-760 (1990).
Human neutrophils are isolated from heparinized whole blood by density gradient centrifugation on Mono-Poly resolving media, Flow Laboratories. Neutrophil suspensions are greater than 98% pure and greater than 95% viable by trypan blue exclusion. For adhesion assays, neutrophils are suspended at a concentration of 2×10^6 cells/ml in Hanks' balanced salt solution containing 1.26 mM Ca^2+ and 0.81 mM Mg^2+ (HBSS, Gibco) with 5 mg/ml human serum albumin (HBSS/HSA). Adhesion assays are conducted in triplicate in 96-well microtiter plates, Corning, incubated at 4° C. overnight with 50 microliters of various protein solutions.
GMP-140 is isolated from human platelet lysates by immunoaffinity chromatography on antibody S12-Sepharose™ and ion-exchange chromatography on a Mono-Q™ column (FLPC, Pharmacia Fine Chemicals), as follows.
Outdated human platelet packs (100 units) obtained from a blood bank and stored at 4° C. are pooled, adjusted to 5 mM EDTA at pH 7.5, centrifuged at 4,000 rpm for 30 min in 1 liter bottles, then washed three times with 1 liter of 0.1 M NaCl, 20 mM Tris pH 7.5 (TBS), 5 mM EDTA, 5 mM benzamidine.
The pellets are then resuspended in a minimum amount of wash buffer and made 1 mM in DIFP, then frozen in 50 ml screwtop tubes at -80° C. The frozen platelets are thawed and resuspended in 50 ml TBS, 5 mM benzamidine, 5 mM EDTA pH 7.5, 100 µM leupeptin. The suspension is frozen and thawed two times in a dry ice-acetone bath using a 600 ml lyophilizing flask, then homogenized in a glass/teflon mortar and pestle and made 1 mM in DIFP. The NaCl concentration is adjusted to 0.5 M with a stock solution of 4 M NaCl. […]
Bound GMP-140 is eluted from the S12 Affigel with 100 ml of 80% ethylene glycol, 1 mM MES pH 6.0, 0.01% Lubrol PX. Peak fractions with absorbance at 280 nm are pooled. […]

No end group written: not given here.

“RKEAEIWTDV-NH2 [RKEAEIWTDV-NH2, Arginyl-lysyl-glutamyl-alanyl-glutamyl-isoleucyl-tryptophyl-threonyl-aspartyl-valine amide]”: under “peptide concentration 0.10 Mm”, the inhibition at 100 µM was determined as 19%. The inhibition at 300 µM (peptide concentration 0.30 Mm) worked out at 63%. In addition, the inhibition at 1000 µM (peptide concentration 1.0 Mm) stood at 67%.
